SMILES	melting point [°C]
N#Cc1ncc(C(F)(F)F)cc1S[C@H](C[C@H](N)CO)c1ccccc1.O=C(O)C(=O)O [Example 30, 3-[[(1R,3S)-3-Amino-4-hydroxy-1-phenylbutyl]thio]-5-(trifluoromethyl)-2-pyridinecarbonitrile ethanedioate]	147 to 149
COc1cc(S[C@@H](C[C@@H](N)CO)c2ccccc2)c(C#N)cn1.O=C(O)/C=C/C(=O)O [Example 12, 4-[[(1S,3R)-3-Amino-4-hydroxy-1-phenylbutyl]thio]-6-methoxy-3-pyridinecarbonitrile, (E)-butenedioate]	162.5 to 163
Cl.Cl.N#Cc1ccc(Br)cc1S[C@H](C[C@H](N)CO)c1cccnc1 [Example 58, 2-[[(1R,3S)-3-Amino-4-hydroxy-1-(3-pyridyl)butyl]thio]-4-bromobenzonitrile dihydrochloride]	278 to 280
N#Cc1cccnc1S[C@H](C[C@H](N)CO)c1ccccc1.O=C(O)/C=C/C(=O)O [Example 22, 2-[[(1R,3S)-3-Amino-4-hydroxy-1-phenylbutyl]thio]-3-pyridinecarbonitrile (E)-butenedioate]	67 to 69
N#Cc1ccc(C(F)(F)F)nc1OC(C[C@H](N)CO)c1ccno1.O=C(O)/C=C/C(=O)O (stereo partly drawn) [Example 52, 2-[[(3S)-3-Amino-4-hydroxy-1-(5-isoxazolyl)butyl]oxy]-6-(trifluoromethyl)-3-pyridinecarbonitrile, (E)-butenedioate]	150 to 152
COc1cc(S[C@H](C[C@@H](N)CO)c2ccccc2)c(C#N)cn1.O=C(O)/C=C/C(=O)O [Example 11, 4-[[(1R,3R)-3-Amino-4-hydroxy-1-phenylbutyl]thio]-6-methoxy-3-pyridinecarbonitrile (E)-butenedioate]	221 to 223
N#Cc1cnc(OC(F)F)cc1S[C@H](C[C@H](N)CO)c1ccccc1.O=C(O)/C=C/C(=O)O [Example 14, 4-[[(1R,3S)-3-Amino-4-hydroxy-1-phenylbutyl]thio]-6-(difluoromethoxy)-3-pyridinecarbonitrile (E)-butenedioate]	144 to 146
N#Cc1ccc(S[C@H](C[C@H](N)CO)c2ccccc2)c(Cl)c1.O=C(O)C(=O)O [Example 43, 4-[[(1R,3S)-3-Amino-4-hydroxy-1-phenylbutyl]thio]-3-chlorobenzonitrile ethanedioate]	142 to 144
COc1cc(S[C@H](C[C@H](N)CO)c2ccccc2)c(Cl)cn1 [Example 28, (β^1S,β^1R) β-Amino-δ-[(5-chloro-2-methoxy-4-pyridinyl)thio]-benzenebutanol (E)-2-butenedioate]	191 to 193
COc1cc(S[C@@H](C[C@H](N)CO)c2ccccc2)c(C#N)cn1.O=C(O)/C=C/C(=O)O [Example 13, 4-[[(1S,3S)-3-Amino-4-hydroxy-1-phenylbutyl]thio]-6-methoxy-3-pyridinecarbonitrile (E)-butenedioate]	213 to 228
CNc1cc(S[C@H](C[C@H](N)CO)c2ccccc2)c(C#N)cn1.Cl.Cl [Example 26, 4-[[(1R,3S)-3-Amino-4-hydroxy-1-phenylbutyl]thio]-6-(methylamino)-3-pyridinecarbonitrile dihydrochloride]	206 to 208
CC(=O)c1ccc(C#N)c(S[C@H](C[C@H](N)CO)c2ccccc2)n1.Cl [Example 20, 6-Acetyl-2-[[(1R,3S)-3-amino-4-hydroxy-1-phenylbutyl]thio]-3-pyridinecarbonitrile Hydrochloride]	78
N#Cc1ccc(C(F)(F)F)nc1O[C@H](C[C@H](N)CO)c1ccc(F)cc1.O=C(O)C(=O)O [Example 36, 2-[[(1R,3S)-3-Amino-1-(4-fluorophenyl)-4-hydroxybutyl]oxy]-6-trifluoromethyl-3-pyridinecarbonitrile ethanedioate]	109 to 114
COc1cc(S[C@H](C[C@H](N)CO)c2ccccc2)c(Br)cn1 [Example 27, (β^1S,β^1R)-β-Amino-δ-[(5-bromo-2-methoxy-4-pyridinyl)thio]-benzenebutanol (E)-2-butenedioate]	178 to 180
COc1cc(S[C@H](C[C@H](N)CO)c2ccccc2F)c(C#N)cn1.O=C(O)C(=O)O [Example 35, 4-[[(1R,3S)-3-Amino-1-(2-fluorophenyl)-4-hydroxybutyl]thio]-6-methoxy-3-pyridinecarbonitrile ethanedioate]	179 to 185
Cc1nc(O[C@H](C[C@H](N)CO)c2nccs2)c(C#N)cc1F.Cl [Example 59, 2-[[(1R,3S)-3-Amino-4-hydroxy-1-(2-thiazolyl)butyl]oxy]-5-fluoro-6-methyl-3-pyridinecarbonitrile hydrochloride]	148 to 150
CC(C)(O)[C@@H](N)C[C@@H](Oc1cc(Cl)c(F)cc1C#N)c1ccccc1.O=C(O)C(=O)O [Example 47, 2-[[(1R,3S)-3-Amino-4-hydroxy-4-methyl-1-phenylpentyl]oxy]-4-chloro-5-fluoro benzonitrile ethanedioate]	80
CCN[C@H](CO)C[C@@H](Oc1cc(Cl)c(F)cc1C#N)c1nccs1.O=C(O)C(=O)O [Example 44, 4-Chloro-2-[[(1R,3S)-3-(ethylamino)-4-hydroxy-1-(2-thiazolyl)butyl]oxy]-5-fluoro-benzonitrile ethanedioate salt]	55 to 80
Cl.N#Cc1ccc(Cl)cc1S[C@H](C[C@H](N)CO)c1cncnc1 [Example 56, 2-[[(1R,3S)-3-Amino-4-hydroxy-1-(5-pyrimidyl)butyl]thio]-4-chlorobenzonitrile hydrochloride]	120 to 130
Cc1ccc(C#N)c(SC(C[C@H](N)CO)c2ccno2)n1.O=C(O)/C=C/C(=O)O (stereo partly drawn) [Example 51, 2-[[(3S)-3-Amino-4-hydroxy-1-(5-isoxazolyl)butyl]thio]-6-methyl-3-pyridinecarbonitrile (E)-butenedioate]	150 to 152
CCOc1cc(S[C@H](C[C@H](N)CO)c2ccccc2)c(C#N)cn1 [Example 29, 4-[[(1R,3S)-3-Amino-4-hydroxy-1-phenylbutyl]thio]-6-ethoxy-3-pyridinecarbonitrile. (E)-butenedioate]	169.5 to 171.5
N#Cc1ccc(CO)nc1S[C@H](C[C@H](N)CO)c1ccccc1.O=C(O)/C=C/C(=O)O [Example 21, 2-[[(1R,3S)-3-Amino-4-hydroxy-1-phenylbutyl]thio]-6-(hydroxymethyl)-3-pyridinecarbonitrile (E)-butenedioate]	147 to 149
N#Cc1cc(F)c(Cl)cc1O[C@H](C[C@H](N)CO)c1scnc1Cl.O=C(O)/C=C/C(=O)O [Example 61, 2-[[(1R,3S)-3-Amino-1-(4-chloro-5-thiazolyl)-4-hydroxybutyl]oxy]-4-chloro-5-fluorobenzonitrile (E)-butenedioate salt]	177 to 178
N#Cc1cc(F)ccc1O[C@H](C[C@H](N)CO)c1cncs1.O=C(O)/C=C/C(=O)O [Example 45, 2-[[(1R,3S)-3-Amino-4-hydroxy-1-(5-thiazolyl)butyl]oxy]-5-fluoro-benzonitrile (2E)-2-butenedioate]	163 to 165
CCC[C@@H](C[C@H](N)CO)Oc1cc(Cl)c(F)cc1C#N.O=C(O)C(=O)O [Example 48, 2-[[(1S,3S)-3-Amino-4-hydroxy-1-propylbutyl]oxy]-4-chloro-5-fluorobenzonitrile ethanedioate]	171 to 172
Cl.Cl.N#Cc1ccc(C(F)(F)F)cc1S[C@H](C[C@H](N)CO)c1cccnc1 [Example 55, 2-[[(1R,3S)-3-Amino-4-hydroxy-1-(3-pyridinyl)butyl]thio]-4-(trifluoromethyl)benzonitrile dihydrochloride]	238 to 240
COc1cc(S[C@H](C[C@H](N)CO)c2sccc2F)c(C#N)cn1.O=C(O)/C=C/C(=O)O [Example 60, 4-[[(1R,3S)-3-Amino-1-(3-fluoro-2-thienyl)-4-hydroxybutyl]thio]-6-methoxy-3-pyridinecarbonitrile (E)-butenedioate salt]	177 to 178
Cl.Cl.N#Cc1cc(F)c(Cl)cc1S[C@H](C[C@H](N)CO)c1cccnc1 [Example 57, 2-[[(1R,3S)-3-Amino-4-hydroxy-1-(3-pyridinyl)butyl]thio]-4-chloro-5-fluorobenzonitrile dihydrochloride]	252 to 255
N#Cc1cc(F)c(Cl)cc1O[C@H](C[C@H](N)CO)c1ccsc1.O=C(O)C(=O)O [Example 54, 2-[[3-(3S)-Amino-4-hydroxy-1(R)-(3-thienyl)butyl]oxy]-4-chloro-5-fluorobenzonitrile ethanedioate]	111 to 115
COc1cc(S[C@H](C[C@H](N)CO)c2ccccc2)c(C#N)cn1 [Example 10, 4-[[(1R,3S)-3-Amino-4-hydroxy-1-phenylbutyl-]thio]-6-methoxy-3-pyridinecarbonitrile (E)-butenedioate]	172 to 173

From patent publication US20040242871A1, “Novel arylheteroalkylamine derivatives” (priority 2001, published 2004)
